For the assay, the target named is T1, native MDH (Sus scrofa, UniProt P00346).
T1 construct: soluble pig heart MDH from Roche, product #10127248001; purchased Roche 10127248001; host or cells: pig heart
T1 sequence (P00346 25-338): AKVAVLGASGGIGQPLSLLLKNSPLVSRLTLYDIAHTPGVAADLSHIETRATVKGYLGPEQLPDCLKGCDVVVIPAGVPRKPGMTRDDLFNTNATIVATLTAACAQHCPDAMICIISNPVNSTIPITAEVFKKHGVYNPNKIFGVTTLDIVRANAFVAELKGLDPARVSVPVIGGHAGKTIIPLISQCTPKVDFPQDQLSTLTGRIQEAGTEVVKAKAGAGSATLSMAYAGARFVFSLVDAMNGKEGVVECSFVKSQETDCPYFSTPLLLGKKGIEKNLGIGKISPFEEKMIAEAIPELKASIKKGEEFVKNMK
Nature of the assay: Counter-screen for inhibition of native MDH enzymatic activity. It is filed as biochemical, pig. The method, then: Reagent Preparations & Assay Protocol: This assay was performed as described above for the GroEL/ES-dMDH refolding assay; however, the assay protocol differed in the sequence of compound addition to the assay plates. The refolding reactions were allowed to proceed for 45 min at 37° C. in the absence of test compounds (complete refolding of MDH occurs), then quenched with the EDTA stock. Compounds were then pin-transferred into the plates after the EDTA quenching step; thus, compounds effects are only possible by inhibiting the fully-refolded MDH reporter substrate. […] A340 nm measurements were recorded at 0.5 minutes (start point) and at successive time points until the amount of NADH consumed reached ˜90% (end point, generally between 20-35 minutes). Compounds were tested in 8-point, 3-fold dilution series (62.5 μM to 29 nM during the reporter reaction) in clear, flat-bottom 384-well microtiter plates. DMSO was used as a negative control, and previously discovered native MDH inhibitors were used as positive controls. […] Results presented represent the averages of IC50 values obtained from at least quadriplicate (duplicate of duplicate) replicates.
(The purpose of a counterscreen is to sort out artefacts and off-target activity.)

The record followed here is patent publication US20210395210A1, “INHIBITION OF BACTERIAL CHAPERONIN SYSTEMS” (THE TRUSTEES OF INDIANA UNIVERSITY, priority 2018, published 2021).

Molecules are shown by their SMILES. Where only a bound is given, the exact number is not on record here.

As to `O=C(Nc1ccccc1)c1ccccc1` [Compound 28, N-Phenylbenzamide], the half-maximal inhibitory concentration (IC50) (commonly the concentration that gives 50% inhibition) was over 63 µM (Biochemical Assay IC50 Native MDH Reporter) and over 63.1 µM (log(IC50) Native MDH Reporter, log of IC50 (μM scale), with standard deviation).
